Experimental data reported in ChEMBL document CHEMBL1777720, “Novel, potent, and orally bioavailable phosphinic acid inhibitors of the hepatitis C virus NS3 protease” (Bioorg Med Chem Lett, 2011).

Columns and labels:
[1] = Clearance in dog at 1 mg/kg, iv; format: ADME, organism-based, Canis lupus familiaris; design: dose 1 mg/kg, route intravenous; settings: in vivo
[2] = Oral bioavailability in dog at 3 mg/kg; format: ADME, organism-based, Canis lupus familiaris; settings: in vivo
Hepatitis C virus = test: Antiviral activity against HCV genotype 1b infected in Huh7 cells assessed as inhibition of viral replication by cell-based replicon assay; format: functional, organism-based, Hepacivirus hominis; settings: Huh-7
[3] = Inhibition of HCV 1a NS3/4A protease; design: species or system Hepatitis C virus subtype 1a
[4] = Oral bioavailability in rat at 10.7 mg/kg, po; format: ADME, organism-based; settings: in vivo
[5] = Clearance in rat at 0.4 mg/kg, iv; format: ADME, organism-based; design: dose 0.4 mg/kg, route intravenous; settings: in vivo
[6] = Clearance in dog at 0.5 mg/kg, iv; format: ADME, organism-based, Canis lupus familiaris; design: dose 0.5 mg/kg, route intravenous; settings: in vivo
[7] = Oral bioavailability in dog at 4 mg/kg; format: ADME, organism-based, Canis lupus familiaris; settings: in vivo

## C=C[C@@H]1C[C@]1(NC(=O)[C@@H]1C[C@@H](Oc2cc(-c3csc(NC(C)C)n3)nc3cc(OC)ccc23)CN1C(=O)[C@@H](NC(=O)OC1CCCC1)C(C)(C)C)P(=O)(O)O
[1]
  clearance: 11.2 mL/min/kg
[2]
  bioavailability: 0.5%

## COc1ccc2c(O[C@@H]3C[C@H]4C(=O)N[C@]5(P(=O)(O)O)C[C@H]5/C=C/CCCCC[C@H](NC(=O)OC5CCCC5)C(=O)N4C3)cc(-c3csc(NC(C)C)n3)nc2c1
Hepatitis C virus
  EC50: 5 nM
[3]
  IC50: 1 nM

## C=C[C@@H]1C[C@]1(NC(=O)[C@@H]1C[C@@H](Oc2cc(-c3csc(NC(C)C)n3)nc3cc(OC)ccc23)CN1C(=O)[C@@H](NC(=O)OC1CCCC1)C(C)(C)C)P(C)(=O)O
[4]
  bioavailability: 0.4%
[5]
  clearance: 28.7 mL/min/kg
Hepatitis C virus
  EC50: 69 nM
[3]
  IC50: 6 nM

## C=C[C@@H]1C[C@]1(NC(=O)[C@@H]1C[C@@H](Oc2cc(-c3csc(NC(C)C)n3)nc3cc(OC)ccc23)CN1C(=O)[C@@H](NC(=O)OC1CCCC1)C(C)(C)C)P(=O)(O)CC
Hepatitis C virus
  EC50: 390 nM
[3]
  IC50: 8 nM

## C=C[C@@H]1C[C@]1(NC(=O)[C@@H]1C[C@@H](Oc2cc(-c3csc(NC(C)C)n3)nc3cc(OC)ccc23)CN1C(=O)[C@@H](NC(=O)OC1CCCC1)C(C)(C)C)P(=O)(O)CCCC
Hepatitis C virus
  EC50: 49 nM
[3]
  IC50: 8 nM

## C=C[C@@H]1C[C@]1(NC(=O)[C@@H]1C[C@@H](Oc2cc(-c3csc(NC(C)C)n3)nc3cc(OC)ccc23)CN1C(=O)[C@@H](NC(=O)OC1CCCC1)C(C)(C)C)P(=O)(O)C(C)C
Hepatitis C virus
  EC50: 3080 nM
[3]
  IC50: 86 nM

## C=C[C@@H]1C[C@]1(NC(=O)[C@@H]1C[C@@H](Oc2cc(-c3csc(NC(C)C)n3)nc3cc(OC)ccc23)CN1C(=O)[C@@H](NC(=O)OC1CCCC1)C(C)(C)C)P(=O)(O)c1ccccc1
Hepatitis C virus
  EC50: 2650 nM
[3]
  IC50: 44 nM

## C=C[C@@H]1C[C@]1(NC(=O)[C@@H]1C[C@@H](Oc2cc(-c3csc(NC(C)C)n3)nc3cc(OC)ccc23)CN1C(=O)[C@@H](NC(=O)OC1CCCC1)C(C)(C)C)P(=O)(O)Cc1ccccc1
[5]
  clearance: 36.7 mL/min/kg
[2]
  bioavailability: 4.6%
[6]
  clearance: 10.7 mL/min/kg
Hepatitis C virus
  EC50: 180 nM
[3]
  IC50: 9 nM

## C=C[C@@H]1C[C@]1(NC(=O)[C@@H]1C[C@@H](Oc2cc(-c3csc(NC(C)C)n3)nc3cc(OC)ccc23)CN1C(=O)[C@@H](NC(=O)OC1CCCC1)C(C)(C)C)P(=O)(O)Cc1ccccc1Cl
Hepatitis C virus
  EC50: 311 nM
[3]
  IC50: 6 nM

## C=C[C@@H]1C[C@]1(NC(=O)[C@@H]1C[C@@H](Oc2cc(-c3csc(NC(C)C)n3)nc3cc(OC)ccc23)CN1C(=O)[C@@H](NC(=O)OC1CCCC1)C(C)(C)C)P(=O)(O)Cc1ccccc1OC
Hepatitis C virus
  EC50: 47 nM
[3]
  IC50: 6 nM

## COc1ccc2c(O[C@@H]3C[C@H]4C(=O)N[C@]5(P(=O)(O)Cc6ccccc6)C[C@H]5/C=C/CCCCC[C@H](NC(=O)OC5CCCC5)C(=O)N4C3)cc(-c3csc(NC(C)C)n3)nc2c1
Hepatitis C virus
  EC50: 10 nM
[3]
  IC50: 3 nM

## COc1ccc2c(O[C@@H]3C[C@H]4C(=O)N[C@]5(P(=O)(O)Cc6ccccc6)C[C@H]5CCCCCCC[C@H](NC(=O)OC5CCCC5)C(=O)N4C3)cc(-c3csc(NC(C)C)n3)nc2c1
[1]
  clearance: 6 mL/min/kg
[7]
  bioavailability: 6.4%
Hepatitis C virus
  EC50: 5 nM
[3]
  IC50: 6 nM

## COc1ccc2c(O[C@@H]3C[C@H]4C(=O)N[C@]5(P(=O)(O)Cc6ccccc6Cl)C[C@H]5/C=C/CCCCC[C@H](NC(=O)OC5CCCC5)C(=O)N4C3)cc(-c3csc(NC(C)C)n3)nc2c1
[1]
  clearance: 9.33 mL/min/kg
Hepatitis C virus
  EC50: 5 nM
[3]
  IC50: 1 nM

## COc1ccc2c(O[C@@H]3C[C@H]4C(=O)N[C@]5(P(=O)(O)Cc6ccccc6Cl)C[C@H]5CCCCCCC[C@H](NC(=O)OC5CCCC5)C(=O)N4C3)cc(-c3csc(NC(C)C)n3)nc2c1
[1]
  clearance: 3.17 mL/min/kg
Hepatitis C virus
  EC50: 5 nM
[3]
  IC50: 3 nM

## COc1ccc2c(O[C@@H]3C[C@H]4C(=O)N[C@]5(P(=O)(O)Cc6ccccc6OC)C[C@H]5/C=C/CCCCC[C@H](NC(=O)OC5CCCC5)C(=O)N4C3)cc(-c3csc(NC(C)C)n3)nc2c1
[1]
  clearance: 17.3 mL/min/kg
Hepatitis C virus
  EC50: 9 nM
[3]
  IC50: 3 nM

## COc1ccc2c(O[C@@H]3C[C@H]4C(=O)N[C@]5(P(=O)(O)Cc6ccccc6OC)C[C@H]5CCCCCCC[C@H](NC(=O)OC5CCCC5)C(=O)N4C3)cc(-c3csc(NC(C)C)n3)nc2c1
[1]
  clearance: 5.33 mL/min/kg
Hepatitis C virus
  EC50: 7 nM
[3]
  IC50: 3 nM

## COc1ccc2c(O[C@@H]3C[C@H]4C(=O)N[C@]5(C(=O)O)C[C@H]5C=CCCCCC[C@H](NC(=O)OC5CCCC5)C(=O)N4C3)cc(-c3csc(NC(C)C)n3)nc2c1 [CILUPREVIR]
Hepatitis C virus
  EC50: 1 nM
[3]
  IC50: 1 nM
